Like-named read-outs stand apart in the source and are kept apart here. Each block holds one compound with its values, some of them ahead of it.
Key:
[1] = Test compounds' PK assay in ICR mice; type: in vivo; conditions: for AUC(0-t): AUC in 0-24 hours; for AUC(0-inf): AUC in 0 hour to infinite time; for Vd: read-out: Vss
Procedure: The test compounds were poured into ICR mice stomach through mouth with 10 mg/kg or 5 mg/kg, or administered 2 mg/kg to ICR mice by tail-intravenous injection. Blood sample of orbital vein was taken at 0.083, 0.25, 0.5, 1, 2, 4, 6, 8 and 24 hours after administration, and collected in anticoagulation tube added with EDTA-K2. The test compounds were extracted from plasma samples and chromatographed on a tandem mass spectrometer. Quantitation was performed using multiple reaction monitoring (MRM). Pharmacokinetic parameters were calculated using WinNonlin 6.3 software with non compartment model.

[2] = system: HBV; assay: In-vitro anti-HBV activity in stable HBV-producing cell line (HepG2.2.15), HBV DNA in culture fluid by qPCR; type: cell-based; conditions: Hepatitis B virus, 168 h; HepG2.2.15 cells, HBV DNA in culture media on day 7, qPCR
Procedure: Specific procedures are as follows:
HepG2.2.15 cells were seeded into each well of 96-well plates, 40,000 cells per well. Cells were treated with cell culture medium containing compounds with different concentrations 24 hours after cell seeding. The final concentration of each compound was 16.4 μM in each well and each compound was diluted to desired concentration using 3-fold gradient dilution protocol, 9 diluted points in duplicate. The culture mediums containing the compounds were refreshed on day 4 post cell seeding. Culture media were collected from the HepG2.2.15 plates on day 7 post cell seeding followed by HBV DNA extraction.
HBV DNA extraction: The HBV DNA extraction was performed using QIAamp 96 DNA Blood Kit (QIAGEN 51161).
PCR for quantification: PCR mix was prepared according to PCR system. PCR mix was dispensed to 96-well optical reaction plates (special for quantification). The standard diluted proportionally was added. Then the sample was added; The plates were sealed with optical adhesive film; PCR system was performed according to programs.
Percentage of HBV inhibition of DNA replication by compound was calculated using the following equation: % Inh.=[1-HBV DNA quantity of sample/HBV DNA quantity of DMSO control]*100.
Calculating EC50 value of compounds to HBV replication: the EC50 values were calculated based on “four-parameter logistic equation” and using GraphPad Prism 5 analysis software.

[3] = ICR mice, po 5 mg/kg vs iv 2 mg/kg, calculated by the AUClast
[4] = mouse, plasma, ICR mice, iv, 2 mg/kg
[5] = mouse, plasma, ICR mice, iv, 2 mg/kg, read-out: Cmax
[6] = mouse, plasma, ICR mice, iv, 2 mg/kg, read-out: Tmax
[7] = mouse, plasma, ICR mice, po, 5 mg/kg
[8] = mouse, plasma, ICR mice, po, 5 mg/kg, read-out: Cmax
[9] = mouse, plasma, ICR mice, po, 5 mg/kg, read-out: Tmax

F [1, 3]: 60.2% | absorption after intragastric administration (in words) ([1]; ICR mice, po, 5 mg/kg): rapidly absorbed | clearance [1, 4]: 10.3 mL/min/kg | half-life [1, 4]: 82.2 min | AUC(0-t) [1, 4]: 3230 ng·h/mL | AUC(0-inf) [1, 4]: 3240 ng·h/mL | Cmax [1, 5]: 6270 ng/mL | Tmax [1, 6]: 4.8 min | Vd [1, 4]: 0.33 L/kg | half-life [1, 7]: 63.6 min | AUC(0-t) [1, 7]: 4860 ng·h/mL | AUC(0-inf) [1, 7]: 4870 ng·h/mL | Cmax [1, 8]: 5460 ng/mL | Tmax [1, 9]: 15 min
SMILES: CCOC(=O)C1=C(CN2CC(F)(F)C[C@H]2C(C)CC(=O)O)NC(c2nccs2)=N[C@H]1c1ccc(F)cc1Br (stereo partly drawn) [Example 9, 3-((S)-1-(((R)-6-(2-bromo-4-fluorophenyl)-5-(ethoxycarbonyl)-2-(thiazol-2-yl)-3,6-dihydropyrimidin-4-yl)methyl)-4,4-difluoropyrrolidin-2-yl)butanoic acid]

SMILES: CCOC(=O)C1=C(CN2CC(F)(F)C[C@H]2CCC(=O)O)NC(c2nccs2)=N[C@H]1c1ccc(F)cc1Cl [Example 12, 3-((R)-1-(((R)-6-(2-chloro-4-fluorophenyl)-5-(ethoxycarbonyl)-2-(thiazol-2-yl)-3,6-dihydropyrimidin-4-yl)methyl)-4,4-difluoropyrrolidin-2-yl)propanoic acid]
EC50 [2]: 98 nM

SMILES: CCOC(=O)C1=C(CN2CC(F)(F)C[C@H]2CCC(=O)O)NC(c2nccs2)=N[C@H]1c1ccc(Cl)cc1Cl [Example 13, 3-((R)-1-(((R)-6-(2,4-dichlorophenyl)-5-(ethoxycarbonyl)-2-(thiazol-2-yl)-3,6-dihydropyrimidin-4-yl)methyl)-4,4-difluoropyrrolidin-2-yl)propanoic acid]
EC50 [2]: 64 nM

F ([1]; mouse, in vivo): 7.75% | AUCINF ([1]; mouse, in vivo, iv, 2 mg/kg): 381.2 ng·h/mL | AUClast ([1]; mouse, in vivo, iv, 2 mg/kg): 379.13 ng·h/mL | CL ([1]; mouse, in vivo, iv, 2 mg/kg): 5.25 L/h/kg | Cmax ([1]; mouse, in vivo, iv, 2 mg/kg): 654.37 ng/mL | Tmax ([1]; mouse, in vivo, iv, 2 mg/kg): 4.98 min | Vss ([1]; mouse, in vivo, iv, 2 mg/kg): 7.91 L/kg | t1/2 ([1]; mouse, in vivo, iv, 2 mg/kg): 2.87 h | AUCINF ([1]; mouse, in vivo, po, 10 mg/kg): 147.71 ng·h/mL | AUClast ([1]; mouse, in vivo, po, 10 mg/kg): 145.05 ng·h/mL | Cmax ([1]; mouse, in vivo, po, 10 mg/kg): 78.2 ng/mL | Tmax ([1]; mouse, in vivo, po, 10 mg/kg): 15 min | t1/2 ([1]; mouse, in vivo, po, 10 mg/kg): 3.69 h
SMILES: CCOC(=O)C1=C(CN2CCOCC2)NC(c2nccs2)=NC1c1ccc(F)cc1Br (centres unmarked) [R, Ethyl4-(2-bromo-4-fluorophenyl)-2-(thiazol-2-yl)-6-((4-morpholino)methyl)-1,4-dihydropyrimidine-5-carboxylate, reference compound]

F [1, 3]: 59.3% | absorption after intragastric administration (in words) ([1]; ICR mice, po, 5 mg/kg): rapidly absorbed | clearance [1, 4]: 10.2 mL/min/kg | half-life [1, 4]: 46.2 min | AUC(0-t) [1, 4]: 3270 ng·h/mL | AUC(0-inf) [1, 4]: 3270 ng·h/mL | Cmax [1, 5]: 6560 ng/mL | Tmax [1, 6]: 4.8 min | Vd [1, 4]: 0.38 L/kg | half-life [1, 7]: 188 min | AUC(0-t) [1, 7]: 4840 ng·h/mL | AUC(0-inf) [1, 7]: 4850 ng·h/mL | Cmax [1, 8]: 5410 ng/mL | Tmax [1, 9]: 15 min
SMILES: CCOC(=O)C1=C(CN2CC(F)(F)C[C@H]2CCC(=O)O)NC(c2nccs2)=N[C@H]1c1ccc(F)cc1Br [Example 6, 3-((R)-1-(((R)-6-(2-bromo-4-fluorophenyl)-5-(ethoxycarbonyl)-2-(thiazol-2-yl)-3,6-dihydropyrimidin-4-yl)methyl)-4,4-difluoropyrrolidin-2-yl)propanoic acid]

F [1, 3]: 86.1% | absorption after intragastric administration (in words) ([1]; ICR mice, po, 5 mg/kg): rapidly absorbed | clearance [1, 4]: 5.67 mL/min/kg | half-life [1, 4]: 193 min | AUC(0-t) [1, 4]: 5800 ng·h/mL | AUC(0-inf) [1, 4]: 5810 ng·h/mL | Cmax [1, 5]: 4260 ng/mL | Tmax [1, 6]: 4.8 min | Vd [1, 4]: 0.73 L/kg | half-life [1, 7]: 133 min | AUC(0-t) [1, 7]: 12500 ng·h/mL | AUC(0-inf) [1, 7]: 12500 ng·h/mL | Cmax [1, 8]: 4900 ng/mL | Tmax [1, 9]: 30 min
SMILES: CCOC(=O)C1=C(CN2CC(F)C(C)(C)C2CCC(=O)O)NC(c2nccs2)=N[C@H]1c1ccc(F)cc1Br (stereo partly drawn) [Example 39, 3-(1-(((R)-6-(2-bromo-4-fluorophenyl)-5-(ethoxycarbonyl)-2-(thiazol-2-yl)-3,6-dihydropyrimidin-4-yl)methyl)-4-fluoro-3,3-dimethylpyrrolidin-2-yl)propanoic acid]

SMILES: CCOC(=O)C1=C(CN2CC(F)(F)C[C@@H]2CCC(=O)O)NC(c2nccs2)=N[C@H]1c1ccc(F)cc1Br [Example 17, 3-((S)-1-(((R)-6-(2-bromo-4-fluorophenyl)-5-(ethoxycarbonyl)-2-(thiazol-2-yl)-3,6-dihydropyrimidin-4-yl)methyl)-4,4-difluoropyrrolidin-2-yl)propanoic acid]
EC50 [2]: 12 nM

SMILES: CCOC(=O)C1=C(CN2CC(F)(F)C[C@@H]2CCC(=O)O)NC(c2nccs2)=N[C@H]1c1ccc(F)cc1Cl [Example 19, 3-((S)-1-(((R)-6-(2-chloro-4-fluorophenyl)-5-(ethoxycarbonyl)-2-(thiazol-2-yl)-3,6-dihydropyrimidin-4-yl)methyl)-4,4-difluoropyrrolidin-2-yl)propanoic acid]
EC50 [2]: 20 nM

SMILES: CCOC(=O)C1=C(CN2CC(F)(F)C[C@@H]2CCC(=O)O)NC(c2nccs2)=N[C@H]1c1ccc(Cl)cc1Cl [Example 21, 3-((S)-1-(((R)-6-(2,4-dichlorophenyl)-5-(ethoxycarbonyl)-2-(thiazol-2-yl)-3,6-dihydropyrimidin-4-yl)methyl)-4,4-difluoropyrrolidin-2-yl)propanoic acid]
EC50 [2]: 9 nM

SMILES: CCOC(=O)C1=C(CN2CCS(=O)(=O)C[C@H]2C(=O)O)NC(c2nccs2)=N[C@H]1c1ccc(F)cc1Br [Example 2, (R)-4-(((R)-6-(2-bromo-4-fluorophenyl)-5-(ethoxycarbonyl)-2-(thiazol-2-yl)-3,6-dihydropyrimidin-4-yl)methyl)thiomorpholine-3-carboxylic acid 1,1-dioxide]
EC50 [2]: 6630 nM

SMILES: CCOC(=O)C1=C(CN2CC(F)(F)C[C@H]2CCC(=O)O)NC(c2nccn2C)=NC1c1ccc(F)cc1Br (stereo partly drawn) [Example 7, 3-((2R)-1-((6-(2-bromo-4-fluorophenyl)-5-(ethoxycarbonyl)-2-(1-methyl-1H-imidazol-2-yl)-3,6-dihydropyrimidin-4-yl)methyl)-4,4-difluoropyrrolidin-2-yl)propanoic acid]
EC50 [2]: 65 nM

F [1, 3]: 69.3% | absorption after intragastric administration (in words) ([1]; ICR mice, po, 5 mg/kg): rapidly absorbed | clearance [1, 4]: 11.5 mL/min/kg | half-life [1, 4]: 81 min | AUC(0-t) [1, 4]: 2860 ng·h/mL | AUC(0-inf) [1, 4]: 2870 ng·h/mL | Cmax [1, 5]: 5790 ng/mL | Tmax [1, 6]: 4.8 min | Vd [1, 4]: 0.39 L/kg | half-life [1, 7]: 63 min | AUC(0-t) [1, 7]: 4960 ng·h/mL | AUC(0-inf) [1, 7]: 4970 ng·h/mL | Cmax [1, 8]: 4820 ng/mL | Tmax [1, 9]: 15 min
SMILES: CCOC(=O)C1=C(CN2CC(F)(F)C[C@H]2CC(C)C(=O)O)NC(c2nccs2)=N[C@H]1c1ccc(F)cc1Br (stereo partly drawn) [Example 8, 3-((R)-1-(((R)-6-(2-bromo-4-fluorophenyl)-5-(ethoxycarbonyl)-2-(thiazol-2-yl)-3,6-dihydropyrimidin-4-yl)methyl)-4,4-difluoropyrrolidin-2-yl)-2-methylpropanoic acid]

SMILES: COC(=O)C1=C(CN2CC(F)(F)C[C@H]2CCC(=O)O)NC(c2nccs2)=N[C@H]1c1ccc(F)cc1Cl [Example 15, 3-((R)-1-(((R)-6-(2-chloro-4-fluorophenyl)-5-(methoxycarbonyl)-2-(thiazol-2-yl)-3,6-dihydropyrimidin-4-yl)methyl)-4,4-difluoropyrrolidin-2-yl)propanoic acid]
EC50 [2]: 94 nM

SMILES: COC(=O)C1=C(CN2CC(F)(F)C[C@@H]2CCC(=O)O)NC(c2nccs2)=N[C@H]1c1ccc(Cl)cc1Cl [Example 22, 3-((S)-1-(((R)-6-(2,4-dichlorophenyl)-5-(methoxycarbonyl)-2-(thiazol-2-yl)-3,6-dihydropyrimidin-4-yl)methyl)-4,4-difluoropyrrolidin-2-yl)propanoic acid]
EC50 [2]: 11 nM

SMILES: COC(=O)C1=C(CN2CC(F)(F)C[C@@H]2CCC(=O)O)NC(c2nccs2)=N[C@H]1c1ccc(F)cc1Cl [Example 20, 3-((S)-1-(((R)-6-(2-chloro-4-fluorophenyl)-5-(methoxycarbonyl)-2-(thiazol-2-yl)-3,6-dihydropyrimidin-4-yl)methyl)-4,4-difluoropyrrolidin-2-yl)propanoic acid]
EC50 [2]: 17 nM

SMILES: COC(=O)C1=C(CN2CC(F)(F)C[C@H]2CCC(=O)O)NC(c2nccs2)=N[C@H]1c1ccc(F)cc1Br [Example 14, 3-((R)-1-(((R)-6-(2-bromo-4-fluorophenyl)-5-(methoxycarbonyl)-2-(thiazol-2-yl)-3,6-dihydropyrimidin-4-yl)methyl)-4,4-difluoropyrrolidin-2-yl)propanoic acid]
EC50 [2]: 80 nM

From US9498479B2, “Dihydropyrimidine compounds and their application in pharmaceuticals” (SUNSHINE LAKE PHARMA CO., LTD., priority 2013, dated 2016)
